This is an account of results in US10857201B2, “NNIF and nNIF-related peptides and related methods” (UNIVERSITY OF UTAH RESEARCH FOUNDATION, priority 2016, dated 2020).

For assay [1], the system named is C57BL/6 mice challenged with LPS. The assay can be described thus: Mouse model of systemic inflammation induced by LPS (endotoxemia), survival. It is filed as in vivo. As to conditions: i.p. LPS, first experiment, n=6 per group. How it is done:
Animals with no treatments or given LPS alone were studied in parallel (n≥10 mice for each condition). **P<0.01, log-rank (Mantel-Cox) statistical tool used. The survival difference between nNIF-LPS and CRISPP-LPS compared to CRISPP-SCR-LPS trended toward significance (§ P=0.051).
Control mice were i.p. injected with saline alone. Fluid resuscitation and antibiotic treatment were not used in these experiments. Survival was assessed over 50 or 72 hour intervals. All mice were included in the final survival analysis.

Assay [2] concerns neutrophil extracellular trap (NET) formation. The assay can be described thus: In vitro NET formation by stimulated human PMNs (live cell imaging, NET-associated histone H3 release). The class given is cell-based. As for the experimental part:
Qualitative assessment of NET formation was performed as previously reported (see Yost C C, et al., Blood. 2009; 113 (25):6419-27 and McInturff A M, et al., Blood. 2012; 120 (15):3118-25). Briefly, primary PMNs isolated from preterm infants, healthy term infants, and healthy adults (2×10^6 cells/mL) were incubated with control buffer or stimulated with indicated agonists or bacteria for 1 hour at 37° C. in 5% CO2/95% air on glass coverslips coated with poly-L-lysine. For selected experiments, primary PMNs were pre-incubated with autologous plasma, cord blood plasma, nNIF (0.2-70 nM), CRISPP (0.2-70 nM), nNIF-SCR (1 nM), or CRISPP-SCR (1 nM) for one hour prior to stimulation. After pre-incubation and/or stimulation, PMNs were gently washed with PBS and incubated with a mixture of cell permeable (SYTO® Green, MOLECULAR PROBES®) and impermeable (SYTOX® Orange, MOLECULAR PROBES®) DNA fluorescent dyes. Confocal microscopy was accomplished using a FV1000 IX81 confocal microscope and FLUOVIEW™ software (OLYMPUS™). Both 20× and 60× objectives were used. Z-series images were obtained at a step size of 1 μm over a range of 20 μm for each field. FLUOVIEW™ and ADOBE™ PHOTOSHOP™ CS2 software was used for image processing.
Using BSL 2 safety protocols, primary PMNs isolated from healthy adults (2×10^6 cells/mL) were incubated with mock infection buffer or live dengue virus (M010.05) as for live cell imaging. After a 1-hour incubation, the infected PMNs were fixed with 2% p-FA for 10 minutes prior to incubation with fluorescently-labeled, cell-permeable and cell-impermeable DNA dyes, and imaged as for live cell imaging using confocal microscopy.
NET-associated histone H3 content was determined as previously described (see McInturff A M, et al., Blood. 2012; 120 (15):3118-25). After live cell imaging of control and stimulated primary PMNs (2×10^6/mL; various agonists), the cells were incubated with PBS containing DNase (40 U/mL) for 15 minutes at room temperature to break down and release NETs formed in response to stimulation. The supernatant was gently removed and centrifuged at 420×g for 5 minutes. The cell-free supernatant was then mixed 3:1 with 4× Laemmli buffer prior to western blotting. A polyclonal primary antibody against human histone H3 protein (CELL SIGNALING®) and infrared-conjugated secondary antibodies (LI-COR®) were used. Imaging and densitometry were performed on the ODYSSEY® infrared imaging system)(LI-COR®). This assay was previously validated as a surrogate for NET formation under in vitro conditions (see McInturff A M, et al., Blood. 2012; 120 (15):3118-25) as employed in the present studies.
Without being bound by any specific theory, it was hypothesized that placentally expressed HTRA1, a serine protease, regulates the formation of NET-inhibitory peptides through cleavage of AAT. To test this hypothesis, term and preterm placenta were assessed for HTRA1 expression via western blotting. HTRA1 and AAT plasma expression from term and preterm infants and adults were determined by ELISA. Bioactive (0.5 μg) or placental eluted HTRA1 was incubated with AAT (8 μM) for 18 hours at 37° C. Carboxy-terminus fragments of AAT were detected using western blotting and mass spectrometry. The reaction products were incubated for 1 hour with PMNs isolated from healthy adults prior to LPS stimulation (100 ng/mL) and assessed for NET formation using live cell imaging. Reactive oxygen species were assessed using flow cytometry, chemotaxis using a modified Boyden chamber assay, and bacterial killing using E. coli.

In assay [3] the test system is LPS-induced peritoneal NET formation. Kind of assay: Mouse model of LPS-induced peritonitis (in vivo NET formation). The settings on record: C57BL/6 mice, i.p. LPS. As for the experimental part:
(§1) C57/BL6 or Swiss-Webster mice were pretreated in blinded fashion with CRISPP (10 mg/kg), nNIF (10 mg/kg), or CRISPP-SCR (10 mg/kg) by i.p. injection 1 hour prior to infection (E. coli, 4.5×10^7 cfu/mouse, i.p.) or inoculation (LPS, 25 mg/kg, i.p.) (SIGMA-ALDRICH®). Control mice were injected with saline alone. The mice were sacrificed in a CO2 chamber 3 hours post-infection/inoculation, and the peritoneal fluid and membrane samples were harvested. Briefly, the abdomen was disinfected and opened in the midline without injuring the muscle. The peritoneal cavity was lavaged with sterile saline solution (1 mL) and analyzed for in vivo NET formation, bacteriology, and leukocyte accumulation. NETs in the peritoneal fluid were qualitatively and quantitatively analyzed using live cell imaging with confocal microscopy and NET-associated histone H3 release assays. NETs on the serosal surface of the peritoneal membrane were assessed quantitatively using live cell imaging, followed by standardized grid analysis of five randomly selected high-power visual fields per tissue sample (IMAGEJ™ software, NIH). Peritoneal bacterial colony forming unit (cfu) counts were quantified by permeabilizing all recovered leukocytes with 0.1% Triton X-100 for 10 minutes and performing serial dilutions and bacterial cultures on 5% sheep blood agar plates (HARDY DIAGNOSTICS™). After a 24-hour incubation, bacterial counts were determined. Total leukocyte counts in the peritoneal lavage were determined in Neubauer chambers using an optical microscope after dilution in Turk's solution (2% acetic acid). Differential leukocyte analysis was performed using a 60× oil immersion objective to assess morphology of cyto-centrifuged cells stained with May-Gruenwald-Giemsa dye. All mice were included in the final analysis.

Assay [4] has as its system NET formation in E. coli peritonitis. Kind of assay: Mouse model of E. coli peritonitis (in vivo NET formation). The settings on record: C57BL/6 mice, 10 mg/kg i.p. 1 hour before E. coli i.p., 3 hours.
Excerpt: FIG. 8A depicts results of peritoneal fluid NET formation (red fluorescence, yellow arrow) assessed by live cell imaging (60× magnification, scale bar=50 μm) and histone H3 release (red dashed line=baseline arbitrarily set at 1). Three mice per group. One way ANOVA with Tukey's post hoc testing, ***P<0.001 for CRISPP and nNIF versus CRISPP-SCR.
FIG. 8B depicts results of NET formation on the surfaces of peritoneal membranes (red fluorescence, yellow arrows) that was quantified by counting the number of NETs that crossed standardized grid lines in […] (60× magnification; scale bar=50 μm) using IMAGEJ™ software. A second experiment yielded a similar pattern. FIGS. 8A and 8B depict C57BL/6 mice that were not pretreated or pretreated with nNIF, CRISPP, or CRISPP-SCR (10 mg/kg i.p.; 1 hour) and were inoculated with E. coli (4.5×10^7 bacteria i.p.). After 3 hours, the animals were sacrificed, and peritoneal fluid (FIG. 8A) and membranes (FIG. 8B) were collected for analysis.
FIG. 8C depicts C57BL/6 mice that were not pretreated (left two bars) or that were pretreated with CRISPP, nNIF, or CRISPP-SCR, and that were inoculated with E. coli i.p. as in FIGS. 8A and 8B. Neutrophil numbers in peritoneal fluid were counted after 3 hours (3-5 mice/group). […]
FIG. 8E depicts peritoneal fluid NET formation, imaged and measured as in FIG. 8A (10 mice/group). *P<0.05 for CRISPP/E. coli and nNIF/E. coli compared to CRISPP-SCR/E. coli and E. coli.
FIG. 8F depicts NET formation on peritoneal membrane surfaces, imaged and quantitated as in FIG. 8B (3 mice in each group). *P<0.05 for E. coli versus control (red dashed line); **P<0.01 for CRISPP-SCR/E. coli versus control; †P<0.05 for CRISPP/E. coli and nNIF/E. coli versus CRISPP-SCR/E. coli. One way ANOVA with Tukey's post-hoc testing applied in FIGS. 8E and 8F. In FIGS. 8E and 8F, Swiss-Webster mice that were not pretreated or that were pretreated with nNIF, CRISPP, or CRISPP-SCR were inoculated with E. coli i.p. as in FIGS. 8A and 8B. After 3 hours, peritoneal fluid and membranes were collected. FIGS. 8A-8F indicate that nNIF and CRISPP inhibit in vivo NET formation.
as §1

Turning to “V_MDITPMQVGPLKMKPKVIFNPFKLFENF [CRISPP-SCR, scrambled control peptide of CRISPP, reference compound]”, the “animals alive at 50 hours” value in assay [1] came to 30%. In addition, in assay [2] (PMA 20 nM, peptides 1 nM, 1 hour preincubation), the “PMA-stimulated NET deployment” value is on record as “not”. Also, in assay [2] (adult PMNs preincubated with agent, LPS 100 ng/mL, 1 hour), the “NET formation triggered by LPS” value was “does not”. Further, the “LPS-induced peritoneal NET formation” value in assay [3] is given as “not”. Moreover, in assay [4], the “NET formation by peritoneal fluid PMNs” value was “not” and the “deployment of NETs on the peritoneal surface” value is reported as “not”.
